# Assay results from patent US12612362B2 (SHANXI MEDICAL UNIVERSITY, priority 2021, dated 2026).
# “Also recorded” adds a separate entry of the source.
# What was measured:
# C57BL/6 mice = assay: Oral glucose tolerance test (OGTT); assay type: in vivo; conditions: n=7
# [1] = test system: pancreas islets of the rats; assay: Insulin secretion of isolated rat pancreas islets (insulin radioimmunoassay); conditions: for effect of promoting insulin secretion: 30 min incubation, n=7
smiles,measurement,setting,value
"COc1ccc(C[C@H]2NC[C@H](O)[C@H]2OC(C)=O)cc1 [anisomycin, (2R,3S,4S)-2-[(4-methoxyphenyl)methyl]-3,4-pyrrolidinediol 3-acetate methyl ester]",tolerance to glucose load (blood glucose curve and AUC in OGTT),"C57BL/6 mice; 5 mg/kg intraperitoneally, vs control group",improved to different extents
same,glucose reducing effect (blood glucose curve and AUC in OGTT),"C57BL/6 mice; 15 mg/kg intraperitoneally, vs control group and 5 mg/kg",more obvious than 5 mg/kg anisomycin in glucose reducing effect
same,effect of promoting insulin secretion,"[1]; 2.8 mmol/L glucose (2.8G), 10 μM",does not have the effect of promoting insulin secretion; also recorded: does not have the effect of promoting secretion of insulin
same,effect of promoting insulin secretion,"[1]; 11.1 mmol/L glucose (11.1G), 1 μM",has the significant effect of promoting insulin secretion
same,effect of promoting insulin secretion,"[1]; 11.1 mmol/L glucose (11.1G), 10 μM",has the significant effect of promoting insulin secretion; also recorded: has the significant effect of promoting secretion of insulin
same,effect of promoting insulin secretion,"[1]; 16.7 mmol/L glucose (16.7G), 10 μM",can still promote secretion of insulin with significant difference
same,concentration dependence of promoting insulin secretion,"[1]; 11.1G, 0.1 μM, 1 μM and 10 μM",concentration-dependent effect of promoting insulin secretion
